The numbers were not newly measured in patent US10111869B2, “Reduction of opioid blood fluctuations” (priority 2009, dated 2018), which cites them from elsewhere.

For this data set the following is noted: in vivo.

In the case of `COc1ccc2c3c1O[C@H]1C(=O)CC[C@@]4(O)[C@@H](C2)N(C)CC[C@]314` [Oxycodone], the “analgesic potency relative to morphine” value was “about twice”.
